Results as given in patent US20100048597A1 (Novartis AG, priority 2006, published 2010).
Read-outs that look alike come from different tables or passages of the source.

Columns and labels:
Type in all cases: biochemical
CDK4 = CDK4 (Homo sapiens, UniProt P11802); experiment: CDK4 kinase assay (Table F)
CDK9/cyclinT1 = target: T1, CDK9/cyclinT1 (Homo sapiens, UniProt P50750); experiment: CDK9/cyclinT1 kinase assay, IMAP fluorescence polarization
T1 construct: purchased Millipore
Experimental: (§1) Kinase assays were performed on recombinant purified enzymes using the non-radioactive IMAP fluorescence polarization assay format.
(§2) Compound stocks were prepared and diluted in DMSO and were added to kinase reactions at a 1/100 dilution for a final concentration of 1% DMSO. The components were added together to final concentrations listed in the tables below and incubated for two hours at room temperature.
(§3) The reactions were stopped by addition of stop solution.
CDK9/CDK1/CDK7: final stop concentration is 1× Developer buffer (85% A/15% B), IMAP beads 1/400
(§4) The samples were allowed to incubate for one more hour at room temperature and then the fluorescence polarization was measured. The plate normalized millipolarization (mP) values were plotted against the log of compound concentration for each compound and IC50 values were calculated using the spotfire IC50 calculator and confirmed by visual analysis.

CDK1/cyclinB = target: T2, CDK1/cyclinB (Homo sapiens, UniProt P06493); experiment: CDK1/cyclinB kinase assay, IMAP fluorescence polarization
T2 construct: purchased Millipore
T2 sequence (P06493 whole entry): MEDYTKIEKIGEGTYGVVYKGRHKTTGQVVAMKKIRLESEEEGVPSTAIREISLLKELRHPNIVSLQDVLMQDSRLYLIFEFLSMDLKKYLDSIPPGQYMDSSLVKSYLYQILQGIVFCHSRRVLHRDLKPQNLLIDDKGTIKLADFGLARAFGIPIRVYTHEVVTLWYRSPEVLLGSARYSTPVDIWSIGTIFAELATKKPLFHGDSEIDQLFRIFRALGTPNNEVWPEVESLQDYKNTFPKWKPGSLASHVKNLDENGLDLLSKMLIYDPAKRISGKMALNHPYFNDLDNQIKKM
T2 sequence (P14635 whole entry partner): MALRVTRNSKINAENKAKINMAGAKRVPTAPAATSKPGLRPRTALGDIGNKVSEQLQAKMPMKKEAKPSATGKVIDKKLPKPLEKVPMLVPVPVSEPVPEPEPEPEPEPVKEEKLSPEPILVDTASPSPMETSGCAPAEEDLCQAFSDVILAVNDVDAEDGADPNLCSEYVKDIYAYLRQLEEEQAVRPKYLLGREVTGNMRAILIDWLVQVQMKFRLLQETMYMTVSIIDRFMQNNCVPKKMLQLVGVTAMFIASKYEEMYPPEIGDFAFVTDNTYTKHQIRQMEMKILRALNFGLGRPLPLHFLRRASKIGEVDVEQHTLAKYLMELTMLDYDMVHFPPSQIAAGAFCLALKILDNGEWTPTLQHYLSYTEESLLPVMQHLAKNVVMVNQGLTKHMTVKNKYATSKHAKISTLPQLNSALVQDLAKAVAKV
Experimental: as §1, §2, §3
The samples were allowed to incubate for one more hour at room temperature and then the fluorescence polarization was measured.

CDK2/cyclinA = target: T3, CDK2/cyclinA (Homo sapiens, UniProt P24941); experiment: CDK2/cyclinA kinase assay, IMAP fluorescence polarization
T3 construct: purchased Millipore
Experimental: as §1, §2, §3
CDK2: final stop concentration is 1× Developer buffer (100% A), IMAP beads 1/400
as §4

CDK5 = CDK5 (Homo sapiens, UniProt Q00535); experiment: CDK5 kinase assay (Table F)
Chain of CDK5 (Q00535 whole entry, species assumed): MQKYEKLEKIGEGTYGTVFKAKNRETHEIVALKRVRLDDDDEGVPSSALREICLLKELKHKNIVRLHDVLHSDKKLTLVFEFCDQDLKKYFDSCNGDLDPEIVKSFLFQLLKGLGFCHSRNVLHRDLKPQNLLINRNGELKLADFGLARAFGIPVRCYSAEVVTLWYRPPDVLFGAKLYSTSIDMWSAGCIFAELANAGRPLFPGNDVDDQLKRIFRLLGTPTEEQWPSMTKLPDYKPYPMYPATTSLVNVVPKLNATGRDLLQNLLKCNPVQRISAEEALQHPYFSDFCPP
Chain of CDK5 (Q15078 whole entry partner, species assumed): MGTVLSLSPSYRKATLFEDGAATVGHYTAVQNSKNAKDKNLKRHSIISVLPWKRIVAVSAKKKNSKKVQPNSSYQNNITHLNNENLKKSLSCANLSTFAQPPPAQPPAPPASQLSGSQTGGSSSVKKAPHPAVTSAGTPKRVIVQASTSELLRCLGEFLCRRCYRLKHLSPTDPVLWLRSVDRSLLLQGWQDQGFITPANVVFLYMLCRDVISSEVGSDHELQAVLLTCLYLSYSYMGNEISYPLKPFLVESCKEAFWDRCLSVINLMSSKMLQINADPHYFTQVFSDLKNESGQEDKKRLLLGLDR

Chain of CDK4 (P11802 whole entry, species assumed): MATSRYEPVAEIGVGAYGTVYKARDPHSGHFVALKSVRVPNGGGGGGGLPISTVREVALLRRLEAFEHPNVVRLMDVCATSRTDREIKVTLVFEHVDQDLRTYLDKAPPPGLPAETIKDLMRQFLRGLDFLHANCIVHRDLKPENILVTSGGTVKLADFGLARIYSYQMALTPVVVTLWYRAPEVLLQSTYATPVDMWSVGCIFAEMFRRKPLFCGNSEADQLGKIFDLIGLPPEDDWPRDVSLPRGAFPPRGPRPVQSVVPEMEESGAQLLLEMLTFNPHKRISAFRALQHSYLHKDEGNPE
Chain of CDK4 (P24385 whole entry partner, species assumed): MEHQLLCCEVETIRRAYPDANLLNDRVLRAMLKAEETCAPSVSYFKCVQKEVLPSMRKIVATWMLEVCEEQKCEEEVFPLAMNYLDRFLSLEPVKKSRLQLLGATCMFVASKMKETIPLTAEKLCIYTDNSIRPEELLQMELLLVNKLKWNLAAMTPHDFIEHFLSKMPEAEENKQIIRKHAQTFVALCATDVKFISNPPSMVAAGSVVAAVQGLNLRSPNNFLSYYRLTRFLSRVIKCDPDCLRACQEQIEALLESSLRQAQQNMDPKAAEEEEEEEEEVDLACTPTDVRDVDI
T1 sequence (P50750 whole entry): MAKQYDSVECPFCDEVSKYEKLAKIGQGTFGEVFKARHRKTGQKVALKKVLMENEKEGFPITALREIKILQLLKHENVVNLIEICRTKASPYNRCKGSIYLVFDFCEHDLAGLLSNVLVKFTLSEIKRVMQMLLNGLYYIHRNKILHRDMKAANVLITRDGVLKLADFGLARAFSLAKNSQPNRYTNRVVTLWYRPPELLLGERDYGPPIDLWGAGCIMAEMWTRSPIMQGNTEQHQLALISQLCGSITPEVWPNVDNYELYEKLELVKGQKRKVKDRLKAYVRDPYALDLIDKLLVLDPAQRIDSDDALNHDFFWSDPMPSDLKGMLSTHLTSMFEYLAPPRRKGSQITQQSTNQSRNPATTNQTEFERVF
T1 sequence (O60563 whole entry partner): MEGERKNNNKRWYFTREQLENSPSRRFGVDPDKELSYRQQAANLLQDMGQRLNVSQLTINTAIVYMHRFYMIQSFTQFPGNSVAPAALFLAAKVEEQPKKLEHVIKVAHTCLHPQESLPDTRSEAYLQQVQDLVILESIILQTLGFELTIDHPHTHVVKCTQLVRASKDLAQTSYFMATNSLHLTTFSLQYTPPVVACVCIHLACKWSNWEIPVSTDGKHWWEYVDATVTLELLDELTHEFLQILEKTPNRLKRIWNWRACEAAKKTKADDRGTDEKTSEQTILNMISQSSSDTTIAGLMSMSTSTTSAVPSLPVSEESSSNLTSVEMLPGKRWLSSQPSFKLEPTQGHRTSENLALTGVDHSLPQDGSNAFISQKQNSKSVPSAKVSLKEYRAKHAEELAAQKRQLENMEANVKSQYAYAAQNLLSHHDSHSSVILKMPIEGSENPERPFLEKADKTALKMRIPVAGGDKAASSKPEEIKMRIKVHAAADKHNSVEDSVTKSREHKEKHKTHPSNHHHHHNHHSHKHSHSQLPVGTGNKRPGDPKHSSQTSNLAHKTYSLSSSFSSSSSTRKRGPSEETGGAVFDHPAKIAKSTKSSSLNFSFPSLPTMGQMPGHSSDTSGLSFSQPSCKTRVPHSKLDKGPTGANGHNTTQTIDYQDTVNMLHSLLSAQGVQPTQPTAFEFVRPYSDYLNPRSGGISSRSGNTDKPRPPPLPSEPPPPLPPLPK

Row | SMILES | IC50 (CDK4) [µM] | IC50 (CDK9/cyclinT1) [µM] | IC50 (CDK1/cyclinB; read-out: CDK1 IC50) [µM] | IC50 (CDK2/cyclinA) [µM] | IC50 (CDK5) [µM] | IC50 (CDK1/cyclinB) [µM]
1 | Cc1cnccc1-c1ccnc(Nc2cccc(Cl)c2)n1 [Compound 44, (3-Chloro-phenyl)-[4-(3-methyl-pyridin-4-yl)-pyrimidin-2-yl]-amine] | 15 to 50 | < 5 | < 5 | < 5 | < 5 | –
2 | COc1cnccc1-c1nc(Nc2cccc(S(N)(=O)=O)c2)ncc1C [Compound 47, 3-[4-(3-Methoxy-pyridin-4-yl)-5-methyl-pyrimidin-2-ylamino]-benzenesulfonamide] | < 5 | < 5 | 5 to 15 | < 5 | < 5 | –
3 | CN(C)CCCNc1ncccc1-c1ccnc(Nc2cccc(Cl)c2)n1 [Compound 63, N-{3-[2-(3-Chloro-phenylamino)-pyrimidin-4-yl]-pyridin-2-yl}-N′,N′-dimethyl-propane-1,3-diamine] | 5 to 15 | < 5 | < 5 | < 5 | < 5 | –
4 | CC(C)NCCCNc1ncccc1-c1ccnc(Nc2cccc(Cl)c2)n1 [Compound 64, N-{3-[2-(3-Chloro-phenylamino)-pyrimidin-4-yl]-pyridin-2-yl}-N′-isopropyl-propane-1,3-diamine] | 5 to 15 | < 5 | < 5 | < 5 | < 5 | –
5 | COCCCNc1ncccc1-c1ccnc(Nc2cccc(Cl)c2)n1 [Compound 75, (3-Chloro-phenyl)-{4-[2-(3-methoxy-propylamino)-pyridin-3-yl]-pyrimidin-2-yl}-amine] | – | < 5 | 5 to 15 | < 5 | – | –
6 | CC(=O)OCCCNc1ncccc1-c1ccnc(Nc2cccc(Cl)c2)n1 [Compound 76, Acetic acid 3-{3-[2-(3-chloro-phenylamino)-pyrimidin-4-yl]-pyridin-2-ylamino}-propyl ester] | – | < 5 | 5 to 15 | < 5 | – | –
7 | O=C1CCCN1CCCNc1ncccc1-c1ccnc(Nc2cccc(Cl)c2)n1 [Compound 77, 1-(3-{3-[2-(3-Chloro-phenylamino)-pyrimidin-4-yl]-pyridin-2-ylamino}-propyl)-pyrrolidin-2-one] | – | < 5 | < 5 | < 5 | – | –
8 | Clc1cccc(Nc2nccc(-c3cccnc3NCCCN3CCOCC3)n2)c1 [Compound 78, (3-Chloro-phenyl)-{4-[2-(3-morpholin-4-yl-propylamino)-pyridin-3-yl]-pyrimidin-2-yl}-amine] | – | < 5 | 5 to 15 | < 5 | – | –
9 | Cc1nccn1CCCNc1ncccc1-c1ccnc(Nc2cccc(Cl)c2)n1 [Compound 81, (3-Chloro-phenyl)-(4-{2-[3-(2-methyl-imidazol-1-yl)-propylamino]-pyridin-3-yl}-pyrimidin-2-yl)-amine] | – | < 5 | < 5 | < 5 | – | –
10 | Cc1cnc(Nc2cccc(Cl)c2)nc1-c1cccnc1NCCCn1ccnc1C [Compound 82, (3-Chloro-phenyl)-(5-methyl-4-{2-[3-(2-methyl-imidazol-1-yl)-propylamino]-pyridin-3-yl}-pyrimidin-2-yl)-amine] | – | < 5 | – | 15 to 50 | – | 5 to 15
11 | CC(=O)NCCCCNc1ncccc1-c1ccnc(Nc2cccc(Cl)c2)n1 [Compound 85, N-(4-{3-[2-(3-Chloro-phenylamino)-pyrimidin-4-yl]-pyridin-2-ylamino}-butyl)-acetamide] | – | < 5 | < 5 | < 5 | – | –
12 | COc1ncccc1-c1ccnc(Nc2ccncc2)n1 [Compound 89] | – | > 50 | > 50 | > 50 | – | –
13 | COc1ncccc1-c1ccnc(Nc2cccnc2)n1 [Compound 90, [4-(2-Methoxy-pyridin-3-yl)-pyrimidin-2-yl]-pyridin-3-yl-amine] | – | > 50 | > 50 | > 50 | – | –
14 | COc1ncccc1-c1ccnc(Nc2cccc([N+](=O)[O-])c2)n1 [Compound 92, [4-(2-Methoxy-pyridin-3-yl)-pyrimidin-2-yl]-(3-nitro-phenyl)-amine] | – | < 5 | > 50 | > 50 | – | –
15 | COc1ncccc1-c1ccnc(Nc2cccc(C(=O)O)c2)n1 [Compound 94, 3-[4-(2-Methoxy-pyridin-3-yl)-pyrimidin-2-ylamino]-benzoic acid] | – | 15 to 50 | 15 to 50 | < 5 | – | –
16 | COc1ncccc1-c1ccnc(Nc2cccc(C(N)=O)c2)n1 [Compound 95, 3-[4-(2-Methoxy-pyridin-3-yl)-pyrimidin-2-ylamino]-benzamide] | – | < 5 | < 5 | < 5 | – | –

Row | SMILES | IC50 (CDK4) [µM] | IC50 (CDK9/cyclinT1) [µM] | IC50 (CDK1/cyclinB; read-out: CDK1 IC50) [µM] | IC50 (CDK2/cyclinA) [µM] | IC50 (CDK5) [µM] | IC50 (CDK1/cyclinB) [µM]
17 | CCNC(=O)c1cccc(Nc2nccc(-c3cccnc3OC)n2)c1 [Compound 96, N-Ethyl-3-[4-(2-methoxy-pyridin-3-yl)-pyrimidin-2-ylamino]-benzamide] | – | < 5 | < 5 | < 5 | – | –
18 | COc1ncccc1-c1ccnc(Nc2cccc(C(=O)NCCN(C)C)c2)n1 [Compound 97, N-(2-Dimethylamino-ethyl)-3-[4-(2-methoxy-pyridin-3-yl)-pyrimidin-2-ylamino]-benzamide] | – | < 5 | 5 to 15 | 5 to 15 | – | –
19 | COc1ncccc1-c1ccnc(Nc2cccc(NC(C)=O)c2)n1 [Compound 98, N-{3-[4-(2-Methoxy-pyridin-3-yl)-pyrimidin-2-ylamino]-phenyl}-acetamide] | – | < 5 | < 5 | < 5 | – | –
20 | CNS(=O)(=O)c1cccc(Nc2nccc(-c3cccnc3OC)n2)c1 [Compound 100, 3-[4-(2-Methoxy-pyridin-3-yl)-pyrimidin-2-ylamino]-N-methyl-benzenesulfonamide] | – | < 5 | < 5 | < 5 | – | –
21 | CCNS(=O)(=O)c1cccc(Nc2nccc(-c3cccnc3OC)n2)c1 [Compound 101, N-Ethyl-3-[4-(2-methoxy-pyridin-3-yl)-pyrimidin-2-ylamino]-benzenesulfonamide] | – | < 5 | > 50 | < 5 | – | –
22 | COc1ncccc1-c1ccnc(Nc2cccc(S(=O)(=O)NCCO)c2)n1 [Compound 103, N-(2-Hydroxy-ethyl)-3-[4-(2-methoxy-pyridin-3-yl)-pyrimidin-2-ylamino]-benzenesulfonamide] | – | < 5 | < 5 | < 5 | – | –
23 | COc1ncccc1-c1ccnc(Nc2cccc(S(=O)(=O)NC3CCCCC3)c2)n1 [Compound 104, N-Cyclohexyl-3-[4-(2-methoxy-pyridin-3-yl)-pyrimidin-2-ylamino]-benzenesulfonamide] | – | > 50 | > 50 | > 50 | – | –
24 | COc1ncccc1-c1ccnc(Nc2cccc(N3CCCC3)c2)n1 [Compound 106, [4-(2-Methoxy-pyridin-3-yl)-pyrimidin-2-yl]-(3-pyrrolidin-1-yl-phenyl)-amine] | – | < 5 | 5 to 15 | 15 to 50 | – | –
25 | COc1ncccc1-c1ccnc(Nc2cccc(S(=O)(=O)N3CCCCC3)c2)n1 [Compound 107, [4-(2-Methoxy-pyridin-3-yl)-pyrimidin-2-yl]-[3-(piperidine-1-sulfonyl)-phenyl]-amine] | – | < 5 | 5 to 15 | < 5 | – | –
26 | CCOC(=O)c1cccc(Nc2nccc(-c3cccnc3OC)n2)c1 [Compound 108, 3-[4-(2-Methoxy-pyridin-3-yl)-pyrimidin-2-ylamino]-benzoic acid ethyl ester] | – | < 5 | < 5 | < 5 | – | –
27 | COc1ncccc1-c1ccnc(Nc2cccc(C(=O)OC(C)(C)C)c2)n1 [Compound 109, 3-[4-(2-Methoxy-pyridin-3-yl)-pyrimidin-2-ylamino]-benzoic acid tert-butyl ester] | – | < 5 | > 50 | < 5 | – | –
28 | COc1ncccc1-c1ccnc(Nc2cccc(-c3nncn3C)c2)n1 [Compound 111, [4-(2-Methoxy-pyridin-3-yl)-pyrimidin-2-yl]-[3-(4-methyl-4H-[1,2,4]triazo1-3-yl)-phenyl]-amine] | – | < 5 | 5 to 15 | < 5 | – | –
29 | COc1ncccc1-c1ccnc(Nc2cccc(C3CCNCC3)c2)n1 [Compound 113, [4-(2-Methoxy-pyridin-3-yl)-pyrimidin-2-yl]-(3-piperidin-4-yl-phenyl)-amine] | – | < 5 | < 5 | < 5 | – | –
30 | COc1ncccc1-c1ccnc(Nc2cccc(C3CCN(C(=O)OC(C)(C)C)CC3)c2)n1 [Compound 114, 4-{3-[4-(2-Methoxy-pyridin-3-yl)-pyrimidin-2-ylamino]-phenyl}-piperidine-1-carboxylic acid tert-butyl ester] | – | > 50 | > 50 | > 50 | – | –
31 | COc1ncccc1-c1ccnc(Nc2cccc(-c3ccccc3)c2)n1 [Compound 115, Biphenyl-3-yl-[4-(2-methoxy-pyridin-3-yl)-pyrimidin-2-yl]-amine] | – | < 5 | > 50 | > 50 | – | –
32 | COc1ncccc1-c1ccnc(Nc2ccc([N+](=O)[O-])cc2)n1 [Compound 116, [4-(2-Methoxy-pyridin-3-yl)-pyrimidin-2-yl]-(4-nitro-phenyl)-amine] | – | > 50 | > 50 | > 50 | – | –
